# Paper PMC8398451, “Molecular Engineering of Curcumin, an Active Constituent of Curcuma longa L. (Turmeric) of the Family Zingiberaceae with Improved Antiproliferative Activity” (Plants, 2021)
# Like-named read-outs stand apart in the source and are kept apart here.
# Tests used:
# [1] = system: SK-OV-3; test: NCI antiproliferative SRB assay, Ovarian Cancer panel; type: cell-based, Human; settings: one dose 10 µM
# [2] = system: HT29; test: NCI antiproliferative SRB assay, Colon Cancer panel; type: cell-based, Human
# [3] = system: KM12; test: as above; type: cell-based, Human
# [4] = system: 60 NCI cancer cell lines; test: NCI antiproliferative assay, summary over all lines; type: cell-based
# [5] = system: Ovarian Cancer cell line panel; test: NCI antiproliferative assay, panel summary; type: cell-based, Human
# [6] = system: MDA-MB-435; test: NCI antiproliferative SRB assay, Melanoma panel; type: cell-based
# [7] = system: SF-539; test: NCI antiproliferative SRB assay, CNS Cancer panel; type: cell-based, Human
# [8] = system: CAKI-1; test: NCI antiproliferative SRB assay, Renal Cancer panel; type: cell-based, Human
# [9] = system: SNB-19; test: NCI antiproliferative SRB assay, CNS Cancer panel; type: cell-based, Human
# [10] = system: OVCAR-8; test: NCI antiproliferative SRB assay, Ovarian Cancer panel; type: cell-based, Human
# [11] = system: Prostate Cancer cell line panel; test: NCI antiproliferative assay, panel summary; type: cell-based, Human
# [12] = system: NCI-H522; test: NCI antiproliferative SRB assay, Non-Small Cell Lung Cancer panel; type: cell-based, Human
# [13] = system: SN 12C; test: NCI antiproliferative SRB assay, Renal Cancer panel; type: cell-based, Human
# [14] = system: NCI-H322M; test: NCI antiproliferative SRB assay, Non-Small Cell Lung Cancer panel; type: cell-based, Human
# [15] = system: ACHN; test: NCI antiproliferative SRB assay, Renal Cancer panel; type: cell-based, Human
# [16] = system: Breast Cancer cell line panel; test: NCI antiproliferative assay, panel summary; type: cell-based, Human
# [17] = system: Non-Small Cell Lung Cancer cell line panel; test: NCI antiproliferative assay, panel summary; type: cell-based, Human
# [18] = Homo sapiens, 5-dose 0.01-100 µM
# [19] = Homo sapiens, 5-dose 0.01-100 µM, read-out: LC50 (the source's name)
# [20] = mean over cell lines, one dose 10 µM
# [21] = Homo sapiens, 5-dose assay, read-out: Sub Panel MID b (mean GI50 of panel)
compound,measurement,setting,value
COc1ccc(NC(=O)n2nc(/C=C/c3ccc(O)c(OC)c3)cc2/C=C/c2ccc(O)c(OC)c2)cc1 [3b],GP (growth percent),[1],60.74
same,TGI,[2]; 5-dose 0.01-100 µM,11.0 µM
same,GI50,"[2]; Homo sapiens, HT-29, 5-dose 0.01-100 µM",3.52 µM
same,CC50,"[2]; Homo sapiens, HT-29, 5-dose 0.01-100 µM, read-out: LC50 (the source's name)",> 100 µM
same,%GI,[2]; one dose 10 µM,68.74%
same,GP (growth percent),[2]; one dose 10 µM,31.26
same,TGI,[3]; 5-dose 0.01-100 µM,20.7 µM
same,GI50,[3]; [18],3.19 µM
same,CC50,[3]; [19],> 100 µM
same,%GI,[3]; one dose 10 µM,82.11%
same,GP (growth percent),[3]; one dose 10 µM,17.89
same,GI50,"[4]; Homo sapiens, read-out: GI50 values, range over cell lines",1.25 to 18.8 µM
same,CC50,"[4]; Homo sapiens, 5-dose assay, read-out: LC50 over cell lines",> 100 µM
same,GI50,"[4]; Homo sapiens, 5-dose assay, read-out: MID a (mean GI50 of 60 NCI cancer cell lines)",4.89 µM
same,Mean % GI,[4]; [20],66.46%
same,Mean GP,[4]; [20],33.54
same,Mean % GI,[5]; 10 µM,60.11%
same,Selectivity Ratio (MID a:MID b),[5]; 5-dose assay,0.76
same,GI50,[5]; [21],6.46 µM
same,TGI,[6]; 5-dose 0.01-100 µM,4.68 µM
same,GI50,[6]; Homo sapiens,1.25 µM
same,CC50,[6]; [19],> 100 µM
same,%GI,[6]; one dose 10 µM,136.25%
same,GP (growth percent),[6]; one dose 10 µM,−36.25
same,TGI,[7]; 5-dose 0.01-100 µM,13.6 µM
same,GI50,[7]; [18],2.35 µM
same,CC50,[7]; [19],> 100 µM
same,%GI,[7]; one dose 10 µM,93.28%
same,GP (growth percent),[7]; one dose 10 µM,6.72
same,TGI,[8]; 5-dose 0.01-100 µM,>100 µM
same,GI50,[8]; [18],3.6 µM
same,CC50,[8]; [19],> 100 µM
same,%GI,[8]; one dose 10 µM,61.94%
same,GP (growth percent),[8]; one dose 10 µM,38.06
same,TGI,[9]; 5-dose 0.01-100 µM,86.7 µM
same,GI50,[9]; [18],5.28 µM
same,CC50,[9]; [19],> 100 µM
same,%GI,[9]; one dose 10 µM,61.15%
same,GP (growth percent),[9]; one dose 10 µM,38.85
same,TGI,[10]; 5-dose 0.01-100 µM,59.9 µM
same,GI50,[10]; [18],5.32 µM
same,CC50,[10]; [19],> 100 µM
same,%GI,[10]; one dose 10 µM,67.21%
same,GP (growth percent),[10]; one dose 10 µM,32.79
same,Mean % GI,[11]; 10 µM,72.17%
same,Selectivity Ratio (MID a:MID b),[11]; 5-dose assay,1.07
same,GI50,[11]; [21],4.55 µM
same,TGI,[12]; 5-dose 0.01-100 µM,12.7 µM
same,GI50,[12]; [18],1.76 µM
same,CC50,[12]; [19],> 100 µM
same,%GI,[12]; one dose 10 µM,113.52%
same,GP (growth percent),[12]; one dose 10 µM,−13.52
same,TGI,[13]; 5-dose 0.01-100 µM,33.7 µM
same,GI50,"[13]; Homo sapiens, SN12C, 5-dose 0.01-100 µM",3.05 µM
same,CC50,"[13]; Homo sapiens, SN12C, 5-dose 0.01-100 µM, read-out: LC50 (the source's name)",> 100 µM
same,%GI,[13]; one dose 10 µM,68.55%
same,GP (growth percent),[13]; one dose 10 µM,31.45
same,TGI,[14]; 5-dose 0.01-100 µM,72.5 µM
same,GI50,[14]; [18],3.87 µM
same,CC50,[14]; [19],> 100 µM
same,%GI,[14]; one dose 10 µM,41.86%
same,GP (growth percent),[14]; one dose 10 µM,58.14
same,TGI,[15]; 5-dose 0.01-100 µM,>100 µM
same,GI50,[15]; [18],4.18 µM
same,CC50,[15]; [19],> 100 µM
same,%GI,[15]; one dose 10 µM,77.93%
same,GP (growth percent),[15]; one dose 10 µM,26.03
same,Mean % GI,[16]; 10 µM,69.71%
same,Selectivity Ratio (MID a:MID b),[16]; 5-dose assay,1.19
same,GI50,[16]; [21],4.12 µM
same,Mean % GI,[17]; 10 µM,56.51%
same,Selectivity Ratio (MID a:MID b),[17]; 5-dose assay,0.92
same,GI50,[17]; [21],5.32 µM
